From the NIST ThermoML archive (doi:10.1016/j.jct.2019.05.021)
± gives the expanded uncertainty stated by the source.

Experiment: xn = mol fraction of the nth substance listed
Conditions: 100 kPa, Liquid; for viscosity: Falling or rolling sphere viscometry; for mass density: Vibrating tube method

CCCCCCCCCC(=O)OC [methyl decanoate] + CC1CCCCC1
Conditions	mass density [kg/m3]	viscosity [mPa·s]
293.15 K, x2 = 0	872.25 ± 1.8	2.125 ± 0.047
293.15 K, x2 = 0.0999	865.57 ± 1.8	1.953 ± 0.043
293.15 K, x2 = 0.2	858.32 ± 1.7	1.783 ± 0.039
293.15 K, x2 = 0.3	850.46 ± 1.7	1.618 ± 0.035
293.15 K, x2 = 0.4001	841.94 ± 1.7	1.464 ± 0.032
293.15 K, x2 = 0.4998	832.57 ± 1.7	1.316 ± 0.028
293.15 K, x2 = 0.5999	822.32 ± 1.6	1.177 ± 0.025
293.15 K, x2 = 0.6999	811 ± 1.6	1.051 ± 0.023
293.15 K, x2 = 0.8	798.51 ± 1.6	0.933 ± 0.02
293.15 K, x2 = 0.9	784.68 ± 1.6	0.825 ± 0.018
298.15 K, x2 = 0	868.16 ± 1.8	1.909 ± 0.042
298.15 K, x2 = 0.0999	861.49 ± 1.7	1.758 ± 0.038
298.15 K, x2 = 0.2	854.23 ± 1.7	1.613 ± 0.035
298.15 K, x2 = 0.3	846.38 ± 1.7	1.473 ± 0.032
298.15 K, x2 = 0.4001	837.84 ± 1.7	1.339 ± 0.029
298.15 K, x2 = 0.4998	828.47 ± 1.7	1.209 ± 0.026
298.15 K, x2 = 0.5999	818.2 ± 1.6	1.084 ± 0.023
298.15 K, x2 = 0.6999	806.84 ± 1.6	0.969 ± 0.021
298.15 K, x2 = 0.8	794.31 ± 1.6	0.862 ± 0.019
298.15 K, x2 = 0.9	780.43 ± 1.6	0.765 ± 0.016
303.15 K, x2 = 0	864.06 ± 1.8	1.738 ± 0.038
303.15 K, x2 = 0.0999	857.38 ± 1.7	1.603 ± 0.035
303.15 K, x2 = 0.2	850.12 ± 1.7	1.474 ± 0.032
303.15 K, x2 = 0.3	842.25 ± 1.7	1.35 ± 0.029
303.15 K, x2 = 0.4001	833.72 ± 1.7	1.232 ± 0.027
303.15 K, x2 = 0.4998	824.32 ± 1.7	1.12 ± 0.024
303.15 K, x2 = 0.5999	814.03 ± 1.6	1.012 ± 0.022
303.15 K, x2 = 0.6999	802.63 ± 1.6	0.907 ± 0.02
303.15 K, x2 = 0.8	790.09 ± 1.6	0.807 ± 0.017
303.15 K, x2 = 0.9	776.16 ± 1.6	0.716 ± 0.015
308.15 K, x2 = 0	859.96 ± 1.7	1.588 ± 0.035
308.15 K, x2 = 0.0999	853.28 ± 1.7	1.47 ± 0.032
308.15 K, x2 = 0.2	846.01 ± 1.7	1.357 ± 0.03
308.15 K, x2 = 0.3	838.14 ± 1.7	1.247 ± 0.027
308.15 K, x2 = 0.4001	829.57 ± 1.7	1.142 ± 0.025
308.15 K, x2 = 0.4998	820.17 ± 1.6	1.038 ± 0.022
308.15 K, x2 = 0.5999	809.84 ± 1.6	0.937 ± 0.02
308.15 K, x2 = 0.6999	798.43 ± 1.6	0.843 ± 0.018
308.15 K, x2 = 0.8	785.85 ± 1.6	0.754 ± 0.016
308.15 K, x2 = 0.9	771.88 ± 1.6	0.673 ± 0.014
313.15 K, x2 = 0	855.85 ± 1.7	1.453 ± 0.032
313.15 K, x2 = 0.0999	849.16 ± 1.7	1.351 ± 0.03
313.15 K, x2 = 0.2	841.89 ± 1.7	1.251 ± 0.027
313.15 K, x2 = 0.3	834.02 ± 1.7	1.152 ± 0.025
313.15 K, x2 = 0.4001	825.43 ± 1.7	1.057 ± 0.023
313.15 K, x2 = 0.4998	816.01 ± 1.6	0.963 ± 0.021
313.15 K, x2 = 0.5999	805.67 ± 1.6	0.872 ± 0.019
313.15 K, x2 = 0.6999	794.22 ± 1.6	0.787 ± 0.017
313.15 K, x2 = 0.8	781.6 ± 1.6	0.707 ± 0.015
313.15 K, x2 = 0.9	767.57 ± 1.5	0.631 ± 0.014
318.15 K, x2 = 0	851.74 ± 1.7	1.341 ± 0.029
318.15 K, x2 = 0.0999	845.04 ± 1.7	1.252 ± 0.027
318.15 K, x2 = 0.2	837.76 ± 1.7	1.161 ± 0.025
318.15 K, x2 = 0.3	829.87 ± 1.7	1.072 ± 0.023
318.15 K, x2 = 0.4001	821.28 ± 1.6	0.986 ± 0.021
318.15 K, x2 = 0.4998	811.84 ± 1.6	0.904 ± 0.02
318.15 K, x2 = 0.5999	801.47 ± 1.6	0.822 ± 0.018
318.15 K, x2 = 0.6999	789.99 ± 1.6	0.743 ± 0.016
318.15 K, x2 = 0.8	777.33 ± 1.6	0.668 ± 0.014
318.15 K, x2 = 0.9	763.25 ± 1.5	0.598 ± 0.013
323.15 K, x2 = 0	847.62 ± 1.7	1.245 ± 0.027
323.15 K, x2 = 0.0999	840.91 ± 1.7	1.163 ± 0.025
323.15 K, x2 = 0.2	833.62 ± 1.7	1.083 ± 0.024
323.15 K, x2 = 0.3	825.72 ± 1.7	1.003 ± 0.022
323.15 K, x2 = 0.4001	817.11 ± 1.6	0.925 ± 0.02
323.15 K, x2 = 0.4998	807.66 ± 1.6	0.847 ± 0.018
323.15 K, x2 = 0.5999	797.25 ± 1.6	0.772 ± 0.017
323.15 K, x2 = 0.6999	785.75 ± 1.6	0.7 ± 0.015
323.15 K, x2 = 0.8	773.05 ± 1.6	0.632 ± 0.014
323.15 K, x2 = 0.9	758.92 ± 1.5	0.567 ± 0.012
